Source: article PMC8415707 (Frontiers in Pharmacology, 2021)
No end group written: not given here.

Columns and labels:
[1] = tested on: Bacillus subtilis CMCC 63501; assay: microbe, parasite or virus in culture; format: cell-based
Description: (§1) The antimicrobial activity of FM-CATH was measured using two-fold dilution method as reported previously by us ([Ye et al., 2020]). Microorganisms bought from Guangdong Institute of Microbiology were cultured in Muller-Hinton (MH) broth at 37°C to exponential phase and subsequently diluted with fresh MH broth to reach 10^6 CFU/ml of density. An equal volume of microbial inoculums in 96-well plates was incubated with different concentrations of FM-CATH at 37°C for 14 h. The absorbance at 600 nm was measured by a microplate spectrophotometer (Infinite M1000 Pro, Tecan Company, Switzerland) to calculate the minimal inhibitory concentration (MIC) values. […] Ampicillin and polymyxin B were used as positive controls.

[2] = tested on: Pseudomonas aeruginosa ATCC 27853; assay: microbe, parasite or virus in culture; format: cell-based
Description: as §1

[3] = tested on: Candida albicans ATCC 10231; assay: microbe, parasite or virus in culture; format: cell-based
Description: as §1

[4] = tested on: Propionibacterium acnes ATCC 6919; assay: microbe, parasite or virus in culture; format: cell-based
Description: as §1

HepG2 = assay: Cytotoxicity by MTT; format: cell-based; conditions: HepG2, 24 h, 2.5-40 μM tested, n = 3; read-out: IC50 (proliferation, MTT)
Description: (§2) Three tumor cell lines (A549, HepG2, and MDA-MB-231) and two normal mammalian cell lines (MH-S and MDCK) were seeded in 96-well plates at a density of 5,000 cells per well. […] The supernatant was removed and DMSO was added before the absorbance at 490 nm was measured.

mouse erythrocytes = conditions: 40 μM, 2% mouse erythrocyte suspension in TBS, room temperature, 2 h, absorbance 540 nm
Description: Hemolytic assay was carried out with fresh blood from mouse heart as reported in our previous article with minor modification ([Chai et al., 2021]). […] 1% Triton X-100 and PBS were applied as the positive and negative control, respectively. The absorbance of the supernatant at 540 nm was measured with a microplate spectrophotometer. The hemolysis rate was calculated using the following formula: percentage hemolysis = (ODsample—ODPBS)/(ODTriton—ODPBS) × 100%.

A549 = assay: Cytotoxicity by MTT; format: cell-based; conditions: A549, 24 h, 2.5-40 μM tested, n = 3; read-out: IC50 (proliferation, MTT)
Description: as §2

MDA-MB-231 = conditions: MDA-MB-231, 24 h, 2.5-40 μM
Description: as §2

MDCK = assay: Cytotoxicity by MTT; format: cell-based; conditions: 24 h, 2.5-40 μM tested, n = 3, read-out: IC50 (proliferation, MTT)
Description: as §2

MH-S = conditions: 24 h, 2.5-40 μM
Description: as §2

[5] = tested on: Escherichia coli ATCC 25922; format: cell-based; conditions: ATCC 25922, 14 h
Description: The antimicrobial activity of FM-CATH was measured using two-fold dilution method as reported previously by us ([Ye et al., 2020]). Microorganisms bought from Guangdong Institute of Microbiology were cultured in Muller-Hinton (MH) broth at 37°C to exponential phase and subsequently diluted with fresh MH broth to reach 10^6 CFU/ml of density. An equal volume of microbial inoculums in 96-well plates was incubated with different concentrations of FM-CATH at 37°C for 14 h. The absorbance at 600 nm was measured by a microplate spectrophotometer (Infinite M1000 Pro, Tecan Company, Switzerland) to calculate the minimal inhibitory concentration (MIC) values.

[6] = Isothermal titration calorimetry, binding to LPS; set-up: species or system Escherichia coli O55:B5; conditions: ITC, 1 mM peptide titrated into 50 μM LPS, 50 mM PBS pH 7.2, 25°C, single-site model
Description: ITC assay was carried out to investigate the thermodynamics of interactions between peptides and LPS or LTA using MicroCal PEAQ-ITC (Malvern; United Kingdom). 50 mM of PBS (pH 7.2) was used to prepare stock solutions of peptide, LPS, and LTA. […] In LTA binding experiment, 100 μM LTA in the syringe was titrated into 280 μL of 50 μM FM-CATH in the cell with the condition described above. Instrument was operated in high feedback mode. After the heats derived from dilution were subtracted, the equilibrium disassociation constant (K D) and the enthalpy change (ΔH) were analyzed by fitting to a single-site binding model using the MicroCal Origin software. The Gibb’s free energy change (ΔG) and entropy change (ΔS) were obtained from the basic thermodynamic equations, respectively.

[7] = tested on: Staphylococcus aureus ATCC 25923; assay: Antimicrobial assay (MIC, two-fold dilution); format: cell-based; conditions: MH broth, 10^6 CFU/ml, 37°C, 14 h, absorbance 600 nm
Description: as §1

[8] = two-fold dilution, MH broth, 10^6 CFU/ml, 37°C, 14 h, absorbance 600 nm

Compound `CC1(C)S[C@@H]2[C@H](NC(=O)[C@H](N)c3ccccc3)C(=O)N2[C@H]1C(=O)O` [Ampicillin] has an MIC ([1]; Bacillus subtilis, CMCC63501, 14 h) of over 100 µM, an MIC ([2]; Pseudomonas aeruginosa, ATCC27853, 14 h) of over 100 µM and an MIC ([3]; Candida albicans, ATCC10231, 14 h) of over 100 µM. It also gave an MIC ([4]; Cutibacterium acnes, ATCC6919, 14 h) of over 100 µM.
With LKTKALNKLKQKLQAVGNLIGSVIKG [FM-CATH] the IC50 (HepG2) was 33.4 µM, the hemolytic activity (mouse erythrocytes) was “almost no hemolytic activity” and the IC50 (A549) was 11.7 µM. The “cytotoxicity (MTT)” value (MDA-MB-231) was “very low cytotoxicity”, the IC50 (MDCK) was 337 µM and the MIC ([1]; CMCC 63501, 14 h) was 12.5 µM. The MIC ([2]; ATCC 27853, 14 h) was 50 µM, the MIC ([3]; ATCC 10231, 14 h) was 6.25 µM and the MIC ([4]; ATCC 6919, 14 h) was 6.25 µM. For the same compound, the “cytotoxicity (MTT)” value (MH-S) was “very low cytotoxicity” and the MIC [5] was 6.25 µM.
With Polymyxin B the Kd [6] was 0.414 µM, the “∆H” value [6] was 5.9 ± 0.156 kcal/mol and the MIC [7] was over 100 µM. It also gave an MIC [1, 8] of 25 µM, an MIC [2, 8] of 50 µM and an MIC [3, 8] of 25 µM. For the same compound, the MIC [4, 8] was 6.25 µM.
